Data taken from the supplement of paper PMC10307832.

Tests used:
Assay in all cases: relative viability (nuclei count vs DMSO), 5 days (fraction); higher = more cells survive
NCI-H2342 = tested on: NCI-H2342
In short: (§1)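 Relative viability is defined as nuclei in treated wells over nuclei in vehicle wells. Duplicate plates were run and medians reported. Lung cancer cell lines in 1536-well plates were dosed by pin tool one day after seeding, with one drug or with a fixed anchor-drug dose plus five library-drug doses (not always all listed) in √10 steps, and nuclei were counted after 5 days.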

NCI-H1975 = tested on: NCI-H1975
In short: as §1

NCI-H1650 = tested on: NCI-H1650
In short: as §1

BEN = tested on: BEN
In short: as §1

NCI-H1651 = tested on: NCI-H1651
In short: as §1

CAL-12T = tested on: CAL-12T
In short: as §1

LCLC-103H = tested on: LCLC-103H
In short: as §1

NCI-H1563 = tested on: NCI-H1563
In short: as §1

NCI-H2085 = tested on: NCI-H2085
In short: as §1

NCI-H1355 = tested on: NCI-H1355
In short: as §1

LOU-NH91 = tested on: LOU-NH91
In short: as §1

NCI-H838 = tested on: NCI-H838
In short: as §1

NCI-H358 = tested on: NCI-H358
In short: as §1

NCI-H2023 = tested on: NCI-H2023
In short: as §1

HCC-15 = tested on: HCC-15
In short: as §1

HCC-366 = tested on: HCC-366
In short: as §1

NCI-H441 = tested on: NCI-H441
In short: as §1

NCI-H460 = tested on: NCI-H460
In short: as §1

NCI-H1395 = tested on: NCI-H1395
In short: as §1

HCC-44 = tested on: HCC-44
In short: as §1

NCI-H1734 = tested on: NCI-H1734
In short: as §1

EKVX = tested on: EKVX
In short: as §1

NCI-H1755 = tested on: NCI-H1755
In short: as §1

NCI-H1437 = tested on: NCI-H1437
In short: as §1

## COc1cc(N2CCC(C(N)=O)CC2)ccc1Nc1nc(N)c(Cl)c(Nc2ccccc2S(=O)(=O)C(C)C)n1 [HG-5-88-01] + Nc1nc2[nH]cc(CCc3ccc(C(=O)N[C@@H](CCC(=O)O)C(=O)O)cc3)c2c(=O)[nH]1 [Pemetrexed] (partner 0.2 µM)
NCI-H2342; first compound 0.04 µM
  relative viability: 0.664
NCI-H2342; first compound 0.1265 µM
  relative viability: 0.769
NCI-H2342; first compound 0.4 µM
  relative viability: 0.704
NCI-H2342; first compound 4 µM
  relative viability: 0.856
NCI-H1975; first compound 0.04 µM
  relative viability: 0.27
NCI-H1975; first compound 0.1265 µM
  relative viability: 0.296
NCI-H1975; first compound 0.4 µM
  relative viability: 0.273
NCI-H1975; first compound 1.265 µM
  relative viability: 0.297
NCI-H1975; first compound 4 µM
  relative viability: 0.203
NCI-H1650; first compound 0.04 µM
  relative viability: 0.352
NCI-H1650; first compound 0.1265 µM
  relative viability: 0.36
NCI-H1650; first compound 0.4 µM
  relative viability: 0.346
NCI-H1650; first compound 1.265 µM
  relative viability: 0.343
NCI-H1650; first compound 4 µM
  relative viability: 0.354
BEN; first compound 0.04 µM
  relative viability: 0.76
BEN; first compound 0.1265 µM
  relative viability: 0.648
BEN; first compound 0.4 µM
  relative viability: 0.717
BEN; first compound 1.265 µM
  relative viability: 0.687
BEN; first compound 4 µM
  relative viability: 0.711
NCI-H1651; first compound 0.04 µM
  relative viability: 0.499
NCI-H1651; first compound 0.1265 µM
  relative viability: 0.586
NCI-H1651; first compound 0.4 µM
  relative viability: 0.622
NCI-H1651; first compound 1.265 µM
  relative viability: 0.538
NCI-H1651; first compound 4 µM
  relative viability: 0.614
CAL-12T; first compound 0.04 µM
  relative viability: 1.25
CAL-12T; first compound 0.1265 µM
  relative viability: 1.14
CAL-12T; first compound 0.4 µM
  relative viability: 1.24
CAL-12T; first compound 1.265 µM
  relative viability: 0.995
CAL-12T; first compound 4 µM
  relative viability: 0.754
LCLC-103H; first compound 0.04 µM
  relative viability: 0.443
LCLC-103H; first compound 0.1265 µM
  relative viability: 0.505
LCLC-103H; first compound 0.4 µM
  relative viability: 0.462
LCLC-103H; first compound 1.265 µM
  relative viability: 0.492
LCLC-103H; first compound 4 µM
  relative viability: 0.33
NCI-H1563; first compound 0.04 µM
  relative viability: 0.798
NCI-H1563; first compound 0.1265 µM
  relative viability: 0.754
NCI-H1563; first compound 0.4 µM
  relative viability: 0.767
NCI-H1563; first compound 1.265 µM
  relative viability: 0.652
NCI-H1563; first compound 4 µM
  relative viability: 0.973
NCI-H2085; first compound 0.04 µM
  relative viability: 0.911
NCI-H2085; first compound 0.1265 µM
  relative viability: 0.986
NCI-H2085; first compound 0.4 µM
  relative viability: 0.864
NCI-H2085; first compound 1.265 µM
  relative viability: 0.861
NCI-H2085; first compound 4 µM
  relative viability: 0.698
NCI-H1355; first compound 0.04 µM
  relative viability: 1.11
NCI-H1355; first compound 0.1265 µM
  relative viability: 1.03
NCI-H1355; first compound 0.4 µM
  relative viability: 0.726
NCI-H1355; first compound 1.265 µM
  relative viability: 1.04
NCI-H1355; first compound 4 µM
  relative viability: 0.685
LOU-NH91; first compound 0.04 µM
  relative viability: 0.38
LOU-NH91; first compound 0.1265 µM
  relative viability: 0.44
LOU-NH91; first compound 0.4 µM
  relative viability: 0.376
LOU-NH91; first compound 1.265 µM
  relative viability: 0.456
LOU-NH91; first compound 4 µM
  relative viability: 0.522
NCI-H838; first compound 0.04 µM
  relative viability: 0.248
NCI-H838; first compound 0.1265 µM
  relative viability: 0.256
NCI-H838; first compound 0.4 µM
  relative viability: 0.209
NCI-H838; first compound 1.265 µM
  relative viability: 0.234
NCI-H838; first compound 4 µM
  relative viability: 0.246
NCI-H358; first compound 0.04 µM
  relative viability: 0.145
NCI-H358; first compound 0.1265 µM
  relative viability: 0.174
NCI-H358; first compound 0.4 µM
  relative viability: 0.162
NCI-H358; first compound 1.265 µM
  relative viability: 0.132
NCI-H358; first compound 4 µM
  relative viability: 0.148
NCI-H2023; first compound 0.04 µM
  relative viability: 0.231
NCI-H2023; first compound 0.1265 µM
  relative viability: 0.23
NCI-H2023; first compound 0.4 µM
  relative viability: 0.175
NCI-H2023; first compound 1.265 µM
  relative viability: 0.165
NCI-H2023; first compound 4 µM
  relative viability: 0.171
HCC-15; first compound 0.04 µM
  relative viability: 0.209
HCC-15; first compound 0.1265 µM
  relative viability: 0.221
HCC-15; first compound 0.4 µM
  relative viability: 0.213
HCC-15; first compound 1.265 µM
  relative viability: 0.229
HCC-15; first compound 4 µM
  relative viability: 0.185
HCC-366; first compound 0.04 µM
  relative viability: 0.197
HCC-366; first compound 0.1265 µM
  relative viability: 0.146
HCC-366; first compound 0.4 µM
  relative viability: 0.113
HCC-366; first compound 1.265 µM
  relative viability: 0.237
HCC-366; first compound 4 µM
  relative viability: 0.287
NCI-H441; first compound 0.04 µM
  relative viability: 0.28
NCI-H441; first compound 0.1265 µM
  relative viability: 0.279
NCI-H441; first compound 0.4 µM
  relative viability: 0.229
NCI-H441; first compound 1.265 µM
  relative viability: 0.276
NCI-H441; first compound 4 µM
  relative viability: 0.258
NCI-H460; first compound 0.04 µM
  relative viability: 0.0629
NCI-H460; first compound 0.1265 µM
  relative viability: 0.0611
NCI-H460; first compound 0.4 µM
  relative viability: 0.054
NCI-H460; first compound 1.265 µM
  relative viability: 0.0633
NCI-H460; first compound 4 µM
  relative viability: 0.0701
NCI-H1395; first compound 0.04 µM
  relative viability: 0.825
NCI-H1395; first compound 0.1265 µM
  relative viability: 0.923
NCI-H1395; first compound 0.4 µM
  relative viability: 0.751
NCI-H1395; first compound 1.265 µM
  relative viability: 1.05
NCI-H1395; first compound 4 µM
  relative viability: 0.753
HCC-44; first compound 0.04 µM
  relative viability: 0.596
HCC-44; first compound 0.1265 µM
  relative viability: 0.662
HCC-44; first compound 0.4 µM
  relative viability: 0.538
HCC-44; first compound 1.265 µM
  relative viability: 0.699
HCC-44; first compound 4 µM
  relative viability: 0.69
NCI-H1734; first compound 0.04 µM
  relative viability: 0.398
NCI-H1734; first compound 0.1265 µM
  relative viability: 0.423
NCI-H1734; first compound 0.4 µM
  relative viability: 0.361
NCI-H1734; first compound 1.265 µM
  relative viability: 0.391
NCI-H1734; first compound 4 µM
  relative viability: 0.375
EKVX; first compound 0.04 µM
  relative viability: 0.468
EKVX; first compound 0.1265 µM
  relative viability: 0.407
EKVX; first compound 0.4 µM
  relative viability: 0.301
EKVX; first compound 4 µM
  relative viability: 0.352
NCI-H1755; first compound 0.04 µM
  relative viability: 0.446
NCI-H1755; first compound 0.1265 µM
  relative viability: 0.54
NCI-H1755; first compound 0.4 µM
  relative viability: 0.407
NCI-H1755; first compound 1.265 µM
  relative viability: 0.43
NCI-H1755; first compound 4 µM
  relative viability: 0.447
NCI-H1437; first compound 0.04 µM
  relative viability: 0.296
NCI-H1437; first compound 0.1265 µM
  relative viability: 0.334
NCI-H1437; first compound 0.4 µM
  relative viability: 0.267
NCI-H1437; first compound 1.265 µM
  relative viability: 0.327
NCI-H1437; first compound 4 µM
  relative viability: 0.277
